Patent US3937695A, “P-Glu-Trp-Ser-Tyr-D-Lys-Leu-Arg-Pro-Gly-NH2 and intermediates” (American Home Products Corporation, priority 1974, dated 1976)
Where a SMILES comes first, the peptide text is derived from it. [ ]: non-standard residue; d: D form. pGlu = O=C1CC[C@@H](C(=O)O)N1

System: ovulation in female rats
Test: Anti-ovulatory test in proestrous female rats
Format: in vivo, Sprague-Dawley rats
Method: In vivo tests were conducted with female rats (225 to 250 grams body weight). […] The test was conducted with mature Sprague-Dawley rats, unanesthetized, proestrous rats. On the afternoon of proestrous, each rat in the test group received six subcutaneous injections of the acetate salt of formula I in corn oil, each injection being given a half hour following the previous injection. The rats are sacrificed the next morning and the number of animals ovulating and the number of ova shed are recorded following the procedure described by E. S. France, Neuroendocrinology 6, pp 77-89 (1970). The absence of or a significant decrease in the number of ova is the criterion for an anti-ovulation effect.

`CC(C)C[C@H](NC(=O)[C@@H](CCCCN)NC(=O)[C@H](Cc1ccc(O)cc1)NC(=O)[C@H](CO)NC(=O)[C@H](Cc1c[nH]c2ccccc12)NC(=O)[C@@H]1CCC(=O)N1)C(=O)N[C@@H](CCCNC(=N)N)C(=O)N1CCC[C@H]1C(=O)NCC(N)=O` [Example 3, L-Pyroglutamyl-L-tryptophyl-L-seryl-L-tyrosyl-D-lysyl-L-leucyl-L-arginyl-L- prolyl-glycinamide] ([pGlu]WSY[dK]LRPG-NH2) was tested, and the Inhibition of ovulation (1 mg per injection, six subcutaneous injections in corn oil, half an hour apart, on the afternoon of proestrous, rats sacrificed next morning) was “complete inhibition of ovulation” and the Ovulation inhibition (mature unanesthetized proestrous female Sprague-Dawley rats (225 to 250 g), dose of about 24 mg/kg, subcutaneous in corn oil) was “all of the rats tested”.
